According to patent publication US20030199671A1, “Binding molecules for Fc-region polypeptides” (priority 2001, published 2003):
Like-named read-outs stand apart in the source and are kept apart here. Positions of bridges follow the written chain, without caps; N, C: chain ends. Residues, ends and D or L forms follow the SMILES beside them.

Key:
human IgG2 = biological target: T1, human IgG2 (Homo sapiens, UniProt P01859); type: binding; conditions: for % IgG Capture - Batch Binding, Human IgG2: Table 9, immobilized peptide, 5.0 mg/ml resin load
T1 construct: all human subtypes derived from myeloma patients; purchased Calbiochem 400122; host or cells: myeloma patients
T1 sequence (P01859 1-326 isoform P01859-1): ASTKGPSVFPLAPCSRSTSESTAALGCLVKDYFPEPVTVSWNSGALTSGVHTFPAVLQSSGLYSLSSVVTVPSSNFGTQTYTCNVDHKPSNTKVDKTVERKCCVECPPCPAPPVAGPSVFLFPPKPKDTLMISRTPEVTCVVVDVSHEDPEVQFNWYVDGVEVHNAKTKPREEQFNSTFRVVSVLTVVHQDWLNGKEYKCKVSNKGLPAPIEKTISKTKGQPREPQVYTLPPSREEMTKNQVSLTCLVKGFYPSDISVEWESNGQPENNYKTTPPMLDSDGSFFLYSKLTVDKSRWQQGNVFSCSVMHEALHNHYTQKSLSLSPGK
How it was run: (§1)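 Read-out is A280 of unbound IgG (1.4 mg/ml extinction coefficient), with percent bound derived against non-filtered or negative controls. Targets were incubated with immobilized peptides in PBST or TBST for 1-1.5 h at room temperature. Hydrolyzed Sepharose and immobilized Protein A serve as negative and positive controls.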

human IgG [1] = type: binding
How it was run: (§2)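 Unfractionated IgG in PBST (10 mM phosphate, 150 mM NaCl, 0.01% Tween 20, pH 7.2) or TBST (50 mM Tris, pH 7.5) was batch-incubated with immobilized peptide resin for 1-1.5 h at room temperature. Unbound IgG was quantitated by A280, and percent bound was taken by subtraction from control values.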

bovine IgG = type: binding; conditions: Table 11; unfractionated IgG
How it was run: as §2

goat IgG = type: binding; conditions: Table 11; unfractionated IgG
How it was run: as §2

mouse IgG = type: binding
How it was run: as §2

human IgG1 = biological target: T2, human IgG1 (Homo sapiens, UniProt P01857); type: binding; conditions: for % IgG Capture - Batch Binding, Human IgG1: Table 9, immobilized peptide, 5.0 mg/ml resin load
T2 construct: all human subtypes derived from myeloma patients; purchased Calbiochem 400120; host or cells: myeloma patients
T2 sequence (P01857 1-330 isoform P01857-1): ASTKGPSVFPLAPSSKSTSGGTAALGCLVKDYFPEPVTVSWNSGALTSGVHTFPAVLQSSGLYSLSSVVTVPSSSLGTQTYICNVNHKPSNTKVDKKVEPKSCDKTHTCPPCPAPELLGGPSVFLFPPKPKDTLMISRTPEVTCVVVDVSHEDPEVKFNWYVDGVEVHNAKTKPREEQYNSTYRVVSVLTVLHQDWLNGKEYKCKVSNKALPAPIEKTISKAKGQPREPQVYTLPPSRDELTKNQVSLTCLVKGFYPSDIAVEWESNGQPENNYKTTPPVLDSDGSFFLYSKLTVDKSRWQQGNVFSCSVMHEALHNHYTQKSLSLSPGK
How it was run: (§3)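 Percent bound = control mass minus unbound mass, with unbound IgG read at A280 after 1–1.5 h room-temperature incubation with the peptide resin in PBST pH 7.2 or TBST pH 7.5. Bound IgG was eluted 30–60 min with 0.1 M citrate pH 4.0 and/or bicarbonate pH 8.5. Recovery is given as percent of total load.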

IgG3 = IgG3 (Homo sapiens, UniProt P01860); type: binding; set-up: all human subtypes derived from myeloma patients; purchased Calbiochem 400124; host or cells: myeloma patients; conditions: for % IgG Capture - Batch Binding, Human IgG3: Table 9, immobilized peptide, 5.0 mg/ml resin load
IgG3, sequence (P01860 1-377 isoform P01860-1): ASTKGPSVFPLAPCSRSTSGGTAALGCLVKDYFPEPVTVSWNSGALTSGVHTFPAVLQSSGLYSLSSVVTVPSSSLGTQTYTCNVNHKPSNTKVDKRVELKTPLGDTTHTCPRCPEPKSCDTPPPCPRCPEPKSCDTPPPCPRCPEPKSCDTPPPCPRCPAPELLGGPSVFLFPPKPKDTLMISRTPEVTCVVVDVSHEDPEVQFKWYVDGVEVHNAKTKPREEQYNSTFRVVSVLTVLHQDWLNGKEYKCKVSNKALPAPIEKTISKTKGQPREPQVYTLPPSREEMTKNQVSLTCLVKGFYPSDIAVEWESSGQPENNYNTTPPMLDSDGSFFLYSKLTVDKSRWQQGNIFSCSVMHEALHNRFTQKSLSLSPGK
How it was run: as §3

IgG4 = IgG4 (Homo sapiens, UniProt P01861); type: binding; set-up: all human subtypes derived from myeloma patients; purchased Calbiochem 400126; host or cells: myeloma patients; conditions: for % IgG Capture - Batch Binding, Human IgG4: Table 9, immobilized peptide, 5.0 mg/ml resin load
IgG4, sequence (P01861 1-327 isoform P01861-1): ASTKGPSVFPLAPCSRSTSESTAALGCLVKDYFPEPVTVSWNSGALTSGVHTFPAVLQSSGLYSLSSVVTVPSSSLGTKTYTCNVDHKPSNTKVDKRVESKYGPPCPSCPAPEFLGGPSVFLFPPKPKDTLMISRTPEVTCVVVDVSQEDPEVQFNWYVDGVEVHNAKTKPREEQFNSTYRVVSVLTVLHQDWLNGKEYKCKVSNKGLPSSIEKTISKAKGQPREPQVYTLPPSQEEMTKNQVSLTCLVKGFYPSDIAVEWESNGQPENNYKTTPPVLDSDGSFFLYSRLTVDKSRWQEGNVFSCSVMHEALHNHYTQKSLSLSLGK
How it was run: as §1

human IgG [2] = assay: Dynamic (mini-column) binding capacity
Protocol: These media were used to determine the effect of ligand density on human IgG binding capacity in both static (filterplate) and dynamic (mini-column) modes with commercial immobilized recombinant Protein A (Repligen, IPA400) at a single density as control.
The IgG solution was loaded onto the column at a flow rate of 0.2 ml/minute (170 cm/hr). […] At the end of the loading period, the column was washed with PBS until the absorbance at 280 nm of the column eluant returned to baseline. […] Neutralizing the pH of the eluted fractions was unnecessary since the total IgG eluted was determined by total protein absorbance at 280 nm.
To establish total media capacities, IgG was loaded onto the columns until the absorbances of the column load and flow through streams were identical (loading to full capacity). After washing the column to baseline, bound IgG was eluted and the total amount captured from this elution fraction determined. The total capacity of the media (mg IgG/ml media) as total IgG captured divided by the column bed volume was calculated.
Additionally, column capacities at 10% breakthrough were calculated from the online A280 measurements of column flowthrough streams. The A280 curves obtained for the column of interest and for an equivalent “blank” column containing hydrolyzed Sepharose FF 4 media were aligned. The difference in areas between these curves (for a retained and non-retained target) from the time of injection to the time at which the A280 value for the column of interest had risen to 10% of the maximum A280 absorbance (100%) obtained for the load solution at 100% IgG capture saturation (10% breakthrough) was graphically integrated. A standard curve was used to relate the integrated area to mg IgG bound and capacity calculated as total IgG bound divided by column bed volume.

[3] = Table 10, elution 0.1 M sodium bicarbonate buffer, pH 8.5
[4] = Table 10, elution 0.1 M sodium citrate buffer, pH 4.0
[5] = Table 14, average ligand density 1.8 μM/ml

Molecule: CC(=O)N[C@@H](C)C(=O)NCC(=O)N1CCC[C@H]1C(=O)N[C@@H](Cc1c[nH]cn1)C(=O)N[C@@H](CC(N)=O)C(=O)N[C@H]1CSSC[C@@H](C(=O)N[C@@H](CCCCN)C(=O)N[C@@H](Cc2c[nH]c3ccccc23)C(=O)N[C@@H](Cc2ccccc2)C(=O)N2CCC[C@H]2C(=O)NCC(=O)N2CCC[C@H]2C(=O)N[C@@H](CCC(=O)O)C(=O)NCC(=O)NCC(=O)NCC(=O)N[C@@H](CCCCN)C(N)=O)NC(=O)[C@H](Cc2ccc(O)cc2)NC(=O)[C@H](Cc2c[nH]c3ccccc23)NC(=O)[C@H](Cc2ccc(O)cc2)NC(=O)[C@H](Cc2c[nH]cn2)NC(=O)[C@H](CC(=O)O)NC(=O)[C@H](CC(=O)O)NC1=O [DX389] (Ac-AGPHNCDDHYWYCKWFPGPEGGGK-NH2; disulfide 6-13 (inferred))
- % IgG Capture - Batch Binding, Human IgG2 (human IgG2): 11%
- % IgG Capture - Batch Binding, Human IgG (human IgG [1]; Table 11, unfractionated IgG): 4%
- % IgG Capture - Batch Binding, Bovine IgG (bovine IgG): 0%
- % IgG Capture - Batch Binding, Goat IgG (goat IgG): 0%
- % IgG Capture - Batch Binding, Mouse IgG (mouse IgG; Table 11, unfractionated IgG): 0%
- % IgG Capture - Batch Binding, Human IgG1 (human IgG1): 4%
- % IgG Capture - Batch Binding, Human IgG3 (IgG3): 26%
- % IgG Capture - Batch Binding, Human IgG4 (IgG4): 3%

Molecule: CC[C@H](C)[C@@H]1NC(=O)[C@H](CCCCN)NC(=O)[C@@H](NC(=O)[C@H](Cc2c[nH]c3ccccc23)NC(=O)[C@H](Cc2ccc(O)cc2)NC(=O)[C@H](CO)NC(=O)CNC(=O)[C@H](C)NC(C)=O)CSSC[C@@H](C(=O)N2CCC[C@H]2C(=O)N[C@@H](CCC(N)=O)C(=O)N[C@@H](CO)C(=O)N2CCC[C@H]2C(=O)NCC(=O)N2CCC[C@H]2C(=O)N[C@@H](CCC(=O)O)C(=O)NCC(=O)NCC(=O)NCC(=O)N[C@@H](CCCCN)C(N)=O)NC(=O)[C@H](C(C)C)NC(=O)[C@H](CC(=O)O)NC(=O)[C@H](Cc2c[nH]c3ccccc23)NC1=O [DX392] (Ac-AGSYWCKIWDVCPQSPGPEGGGK-NH2; disulfide 6-12 (inferred))
- % IgG Capture - Batch Binding, Human IgG2 (human IgG2): 15%
- % IgG Capture - Batch Binding, Human IgG (human IgG [1]; Table 11, unfractionated IgG): 4%
- % IgG Capture - Batch Binding, Bovine IgG (bovine IgG): 0%
- % IgG Capture - Batch Binding, Goat IgG (goat IgG): 0%
- % IgG Capture - Batch Binding, Mouse IgG (mouse IgG; Table 11, unfractionated IgG): 0%
- % IgG Capture - Batch Binding, Human IgG1 (human IgG1): 13%
- % IgG Capture - Batch Binding, Human IgG3 (IgG3): 76%
- % IgG Capture - Batch Binding, Human IgG4 (IgG4): 9%

Molecule: CC(=O)N[C@@H](C)C(=O)NCC(=O)N[C@@H](CCCCN)C(=O)N[C@@H](Cc1ccc(O)cc1)C(=O)N[C@@H](Cc1c[nH]c2ccccc12)C(=O)N[C@H]1CSSC[C@@H](C(=O)N2CCC[C@H]2C(=O)N[C@@H](C)C(=O)N[C@@H](CC(N)=O)C(=O)N2CCC[C@H]2C(=O)NCC(=O)N2CCC[C@H]2C(=O)N[C@@H](CCC(=O)O)C(=O)NCC(=O)NCC(=O)NCC(=O)N[C@@H](CCCCN)C(N)=O)NC(=O)[C@H](C(C)C)NC(=O)CNC(=O)[C@H](Cc2c[nH]c3ccccc23)NC(=O)[C@H](CC(C)C)NC(=O)[C@H](CC(N)=O)NC1=O [DX395]
- % IgG Capture - Batch Binding, Human IgG2 (human IgG2): 2%
- % IgG Capture - Batch Binding, Human IgG (human IgG [1]; Table 11, unfractionated IgG): 19%
- % IgG Capture - Batch Binding, Bovine IgG (bovine IgG): 0%
- % IgG Capture - Batch Binding, Goat IgG (goat IgG): 0%
- % IgG Capture - Batch Binding, Mouse IgG (mouse IgG; Table 11, unfractionated IgG): 0%
- % IgG Capture - Batch Binding, Human IgG1 (human IgG1): 21%
- % IgG Capture - Batch Binding, Human IgG3 (IgG3): 85%
- % IgG Capture - Batch Binding, Human IgG4 (IgG4): 4%

Molecule: Ac-GDRRACSRDWSGALVWCAGHEPGPEGGGK-NH2 (not fully specified (bridges); printed as Ac-GDRRACSRDWSGALVWCAGHEPGPEGGGK-NH2; cysteine pairing not given here) [DX253]
- Human IgG2 elu pH 8.5 (% of Total Load) (human IgG2; [3]): 32%
- Human IgG2 elu pH 4.0 (% of Total Load) (human IgG2; [4]): 12%
- hIgG2 elution pH 2.5 (% of Total Load) (human IgG2; Table 13): 78%
- hIgG2 elution pH 3.0 (% of Total Load) (human IgG2; Table 13): 69%
- hIgG2 elution pH 3.5 (% of Total Load) (human IgG2; Table 13): 55%
- hIgG2 elution pH 4.5 (% of Total Load) (human IgG2; Table 13): 31%
- hIgG2 elution pH 9.0 (% of Total Load) (human IgG2; Table 13): 42%
- hIgG2 elution pH 9.5 (% of Total Load) (human IgG2; Table 13): 47%
- Batch Binding (% Capture of Total Load) hIgG2 (human IgG2; peptide immobilized on NHS activated sepharose 4 fast flow, target ligand density 2.0 μmole/ml, batch filterplate, hIgG2): 80%
- % IgG Capture - Batch Binding, Human IgG (human IgG [1]; Table 11, unfractionated IgG): 54%
- % IgG Capture - Batch Binding, Human IgG (human IgG [1]; [5]): 71%
- Batch Binding (% Capture of Total Load) hIgG (human IgG [1]; peptide immobilized on NHS activated sepharose 4 fast flow, target ligand density 2.0 μmole/ml, batch filterplate, hIgG): 79%
- % IgG Capture - Batch Binding, Mouse IgG (mouse IgG; Table 11, unfractionated IgG): 2%
- % IgG Capture - Batch Binding, Mouse IgG (mouse IgG; [5]): 2%
- % IgG Capture - Batch Binding, Human IgG1 (human IgG1): 58%
- Human IgG1 elu pH 8.5 (% of Total Load) (human IgG1; [3]): 44%
- Human IgG1 elu pH 4.0 (% of Total Load) (human IgG1; [4]): 14%
- hIgG1 elution pH 2.5 (% of Total Load) (human IgG1; Table 13): 78%
- hIgG1 elution pH 3.0 (% of Total Load) (human IgG1; Table 13): 75%
- hIgG1 elution pH 3.5 (% of Total Load) (human IgG1; Table 13): 54%
- hIgG1 elution pH 4.5 (% of Total Load) (human IgG1; Table 13): 55%
- hIgG1 elution pH 5.5 (% of Total Load) (human IgG1; Table 13): 8%
- hIgG1 elution pH 9.0 (% of Total Load) (human IgG1; Table 13): 44%
- hIgG1 elution pH 9.5 (% of Total Load) (human IgG1; Table 13): 45%
- Batch Binding (% Capture of Total Load) hIgG1 (human IgG1; peptide immobilized on NHS activated sepharose 4 fast flow, target ligand density 2.0 μmole/ml, batch filterplate, hIgG1): 88%
- % IgG Capture - Batch Binding, Human IgG3 (IgG3): 7%
- Human IgG3 elu pH 4.0 (% of Total Load) (IgG3; [4]): 5%
- Capacity (mg IgG/mL resin) 10% Breakthrough (human IgG [2]; Ligand Density 0.17 μM/mL): 0.1 mg IgG/mL resin
- Capacity (mg IgG/mL resin) Total Dynamic (human IgG [2]; Ligand Density 0.17 μM/mL): 0.6 mg IgG/mL resin
- Capacity (mg IgG/mL resin) 10% Breakthrough (human IgG [2]; Ligand Density 0.84 μM/mL): 2.6 mg IgG/mL resin
- Capacity (mg IgG/mL resin) Total Dynamic (human IgG [2]; Ligand Density 0.84 μM/mL): 5.8 mg IgG/mL resin
- Capacity (mg IgG/mL resin) 10% Breakthrough (human IgG [2]; Ligand Density 1.45 μM/mL): 2.9 mg IgG/mL resin
- Capacity (mg IgG/mL resin) Total Dynamic (human IgG [2]; Ligand Density 1.45 μM/mL): 6.4 mg IgG/mL resin
- Capacity (mg IgG/mL resin) 10% Breakthrough (human IgG [2]; Ligand Density 2.75 μM/mL): 8.5 mg IgG/mL resin
- Capacity (mg IgG/mL resin) Total Dynamic (human IgG [2]; Ligand Density 2.75 μM/mL): 24.1 mg IgG/mL resin
- % IgG Capture - Batch Binding, Human IgG4 (IgG4): 33%
- Human IgG4 elu pH 8.5 (% of Total Load) (IgG4; [3]): 22%
- hIgG4 elution pH 2.5 (% of Total Load) (IgG4; Table 13): 49%
- hIgG4 elution pH 3.0 (% of Total Load) (IgG4; Table 13): 49%
- hIgG4 elution pH 3.5 (% of Total Load) (IgG4; Table 13): 53%
- hIgG4 elution pH 4.5 (% of Total Load) (IgG4; Table 13): 23%
- hIgG4 elution pH 5.5 (% of Total Load) (IgG4; Table 13): 4%
- hIgG4 elution pH 9.0 (% of Total Load) (IgG4; Table 13): 45%
- hIgG4 elution pH 9.5 (% of Total Load) (IgG4; Table 13): 62%
- Batch Binding (% Capture of Total Load) hIgG4 (IgG4; peptide immobilized on NHS activated sepharose 4 fast flow, target ligand density 2.0 μmole/ml, batch filterplate, hIgG4): 58%
